Assay results as given in patent publication US9765069B2, “Antimicrobial compounds” (OXFORD UNIVERSITY INNOVATION LIMITED, priority 2012, dated 2017).
Converted amounts (≈) assume the structure as drawn. Read-outs that look alike come from different tables or passages of the source.

What was measured:
S1 = test: MIC determination (bacteria), strain S1; format: cell-based, S. aureus; conditions: Table 2, 2-fold broth dilution; for MIC: Staphylococcus aureus
In short: (§1)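 Broth microdilution, CLSI M7-A7; MH pH7.4, +2.5% laked horse blood for S. pneumoniae, H.T.M. for H. influenzae; 10^5 cfu/well; 37° C o/n, ambient air; MIC = no visual growth, μg/ml; all compounds per species run in the same experiment.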

P1 = test: MIC determination (bacteria), strain P1; format: cell-based, S. pneumoniae; conditions: Table 2, 2-fold broth dilution; for MIC: Streptococcus pneumoniae
In short: as §1

[1] = test system: human peripheral blood cells; test: in vitro toxicities human peripheral blood cells; format: cell-based
Description: (§2) These properties can be determined according to techniques that are well known in the art.

S4 = test: MIC determination (bacteria), strain S4; format: cell-based, S. aureus; conditions: Table 2, 2-fold broth dilution; for MIC: Staphylococcus aureus
In short: as §1

H4 = test: MIC determination (bacteria), strain H4; format: cell-based, H. influenzae; conditions: Table 2 and its footnote f, haemophilus test medium; for MIC: Haemophilus influenzae
In short: as §1

[2] = test system: human embryonic kidney 293 cells; test: in vitro toxicities against human embryonic kidney 293 cells; format: cell-based
Description: as §2

S26 = test: MIC determination (bacteria), strain S26; format: cell-based, S. aureus; conditions: Table 2, 2-fold broth dilution; for MIC: Staphylococcus aureus
In short: as §1

H3 = test: MIC determination (bacteria), strain H3; format: cell-based, H. influenzae; conditions: Table 2, haemophilus test medium; for MIC: Haemophilus influenzae
In short: as §1

[3] = test system: Hek293 / PMBC versus S. aureus 2, MRSA in vivo; test: Selectivity index (LD50 Hek293/PMBC divided by MIC S. aureus 2); format: cell-based; conditions: lower LD50 of Hek293 and PMBC (converted to μg/mL) divided by MIC against S. aureus 2, MRSA in vivo
P9 = test: MIC determination (bacteria), strain P9; format: cell-based, S. pneumoniae; conditions: Table 2, 2-fold broth dilution; for MIC: Streptococcus pneumoniae
In short: as §1

E2 = test: MIC determination (bacteria), strain E2; format: cell-based, enterococcus; conditions: Table 2, 2-fold broth dilution; for MIC: Enterococcus
In short: as §1

P9B = test: MIC determination (bacteria), strain P9B; format: cell-based, S. pneumoniae; conditions: Table 2, 2-fold broth dilution; for MIC: Streptococcus pneumoniae
In short: as §1

[4] = test system: S2 (S. aureus 2, MRSA in vivo); test: MIC determination (bacteria), strain S2; format: cell-based; conditions: Table 2, 2-fold broth dilution; for MIC: Staphylococcus aureus, MRSA
In short: as §1

[5] = aqueous solubility at pH 7.4; format: physicochemical; conditions: aqueous solubility at pH 7.4 (water with 2% DMSO)
Description: as §2

E. Coli RNAP = E. Coli RNAP (Escherichia coli, UniProt P0A8T7+P0A8V2); test: In vitro activity against E. Coli RNAP; format: biochemical
Description: as §2

S. aureus membrane = test: In vitro activity in depolarization of S. aureus membrane; format: cell-based; conditions: read-out: DEP (IC50)
Description: as §2

E1 = test: MIC determination (bacteria), strain E1; format: cell-based, enterococcus; conditions: Table 2, 2-fold broth dilution
In short: as §1

[6] = test system: mammalian_red blood cell membrane; test: In vitro mammalian red blood cell membrane lysis activity; format: cell-based; conditions: Active or inactive at 100 μM
Description: as §2

all strains = test: MIC determination (bacteria), whole strain panel of Table 2; format: cell-based
Description: MIC determination (bacteria); MICs were determined based on Clinical and Laboratory Standards Institute (CLSI) methodology (Methods for dilution antimicrobial susceptibility tests for bacteria that grow aerobically; Approved Standard—seventh edition. 2006, M7-A7, CLSI, Wayne Pa.) by a 2-fold broth dilution technique in Mueller Hinton (pH7.4 Biorad). For S. pneumoniae, the medium was supplemented with 2.5% laked horse blood. For H. influenzae, the medium was haemophilus test medium (H.T.M.). Overnight cultures were diluted to obtain the final inoculum of 10^5 cfu/well. Incubation was 37° C. overnight in ambient air. The MIC was defined as the lowest concentration which inhibited all visual growth and expressed in μg/ml. For each bacterial species, all of the molecules were tested in the same experiment in order to give a head-to-head comparison.

[7] = human embryonic kidney 293 cells
[8] = read-out: MIC against the other strains
[9] = all strains (S1, S26, S4, S2, E1, E2, P1, P9, P9B, H3, H4), read-out: MIC for all strains

Chain of E. Coli RNAP (P0A8V2 whole entry): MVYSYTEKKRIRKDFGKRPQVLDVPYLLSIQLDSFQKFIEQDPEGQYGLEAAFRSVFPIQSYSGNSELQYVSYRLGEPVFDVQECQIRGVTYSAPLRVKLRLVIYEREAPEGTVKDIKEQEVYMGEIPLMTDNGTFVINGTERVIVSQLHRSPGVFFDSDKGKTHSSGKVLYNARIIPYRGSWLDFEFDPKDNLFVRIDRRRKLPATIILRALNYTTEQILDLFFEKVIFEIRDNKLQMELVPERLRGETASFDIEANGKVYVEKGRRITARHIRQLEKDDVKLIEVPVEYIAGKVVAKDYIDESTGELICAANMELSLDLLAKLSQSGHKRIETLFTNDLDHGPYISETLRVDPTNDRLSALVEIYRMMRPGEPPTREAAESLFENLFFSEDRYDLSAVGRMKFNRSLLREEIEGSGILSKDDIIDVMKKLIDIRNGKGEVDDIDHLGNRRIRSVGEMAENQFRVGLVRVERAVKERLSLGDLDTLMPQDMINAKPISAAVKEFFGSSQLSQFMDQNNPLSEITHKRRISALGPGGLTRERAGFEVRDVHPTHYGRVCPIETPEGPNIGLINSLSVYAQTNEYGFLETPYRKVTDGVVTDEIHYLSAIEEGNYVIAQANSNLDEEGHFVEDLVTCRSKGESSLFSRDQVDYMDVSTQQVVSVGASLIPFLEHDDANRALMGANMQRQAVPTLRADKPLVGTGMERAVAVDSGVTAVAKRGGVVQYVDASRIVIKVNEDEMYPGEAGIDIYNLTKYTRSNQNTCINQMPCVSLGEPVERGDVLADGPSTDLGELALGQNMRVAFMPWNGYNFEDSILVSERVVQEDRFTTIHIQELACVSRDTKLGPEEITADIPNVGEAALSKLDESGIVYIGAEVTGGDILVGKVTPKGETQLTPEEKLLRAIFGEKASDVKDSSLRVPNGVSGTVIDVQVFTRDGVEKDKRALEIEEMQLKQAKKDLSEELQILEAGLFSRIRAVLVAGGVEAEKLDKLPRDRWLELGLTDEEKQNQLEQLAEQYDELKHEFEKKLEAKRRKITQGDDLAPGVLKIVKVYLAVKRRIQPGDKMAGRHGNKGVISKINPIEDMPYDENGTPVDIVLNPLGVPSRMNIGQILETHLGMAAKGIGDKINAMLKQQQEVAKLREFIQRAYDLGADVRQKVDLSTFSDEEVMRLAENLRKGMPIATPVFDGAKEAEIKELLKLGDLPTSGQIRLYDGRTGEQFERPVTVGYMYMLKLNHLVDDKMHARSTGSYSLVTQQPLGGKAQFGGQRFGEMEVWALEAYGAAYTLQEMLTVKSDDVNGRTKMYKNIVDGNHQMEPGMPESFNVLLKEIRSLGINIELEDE
Chain of E. Coli RNAP (P0A8T7 whole entry): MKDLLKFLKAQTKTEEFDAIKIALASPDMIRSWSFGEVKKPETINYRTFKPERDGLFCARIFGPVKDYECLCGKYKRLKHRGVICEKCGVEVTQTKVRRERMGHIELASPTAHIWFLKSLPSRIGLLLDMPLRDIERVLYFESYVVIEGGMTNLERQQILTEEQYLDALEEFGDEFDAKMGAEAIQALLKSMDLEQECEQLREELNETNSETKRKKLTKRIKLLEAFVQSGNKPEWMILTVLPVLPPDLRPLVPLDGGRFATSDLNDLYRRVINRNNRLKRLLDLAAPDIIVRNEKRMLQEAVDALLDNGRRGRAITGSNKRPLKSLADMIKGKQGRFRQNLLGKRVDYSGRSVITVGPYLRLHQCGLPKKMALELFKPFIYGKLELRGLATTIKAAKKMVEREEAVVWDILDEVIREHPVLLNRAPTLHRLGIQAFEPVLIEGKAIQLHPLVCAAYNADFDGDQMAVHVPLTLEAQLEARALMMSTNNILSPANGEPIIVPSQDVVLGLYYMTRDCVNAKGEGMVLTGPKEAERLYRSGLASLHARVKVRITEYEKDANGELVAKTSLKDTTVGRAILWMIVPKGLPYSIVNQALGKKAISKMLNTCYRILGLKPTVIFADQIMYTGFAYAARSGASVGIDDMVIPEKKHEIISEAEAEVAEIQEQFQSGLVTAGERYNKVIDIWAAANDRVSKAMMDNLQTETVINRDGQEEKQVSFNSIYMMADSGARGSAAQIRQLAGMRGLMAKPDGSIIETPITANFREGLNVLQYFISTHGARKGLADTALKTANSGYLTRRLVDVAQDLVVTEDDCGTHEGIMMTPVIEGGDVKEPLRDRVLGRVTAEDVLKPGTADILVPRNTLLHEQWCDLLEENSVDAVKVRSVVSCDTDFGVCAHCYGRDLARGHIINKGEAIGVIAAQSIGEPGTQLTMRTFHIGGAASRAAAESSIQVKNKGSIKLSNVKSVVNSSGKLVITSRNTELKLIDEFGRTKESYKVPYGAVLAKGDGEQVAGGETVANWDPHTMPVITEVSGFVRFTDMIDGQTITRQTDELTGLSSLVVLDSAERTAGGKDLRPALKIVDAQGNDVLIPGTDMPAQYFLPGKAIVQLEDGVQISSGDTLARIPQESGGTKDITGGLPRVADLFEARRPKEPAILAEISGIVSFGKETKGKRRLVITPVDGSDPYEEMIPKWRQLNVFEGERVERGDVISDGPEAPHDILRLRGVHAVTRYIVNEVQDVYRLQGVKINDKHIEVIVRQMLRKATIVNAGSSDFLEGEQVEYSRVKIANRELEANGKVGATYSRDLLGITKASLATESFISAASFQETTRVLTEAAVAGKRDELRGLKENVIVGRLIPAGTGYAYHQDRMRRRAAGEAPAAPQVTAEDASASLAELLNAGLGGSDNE
Chain of E. Coli RNAP (P0A7Z4 whole entry partner): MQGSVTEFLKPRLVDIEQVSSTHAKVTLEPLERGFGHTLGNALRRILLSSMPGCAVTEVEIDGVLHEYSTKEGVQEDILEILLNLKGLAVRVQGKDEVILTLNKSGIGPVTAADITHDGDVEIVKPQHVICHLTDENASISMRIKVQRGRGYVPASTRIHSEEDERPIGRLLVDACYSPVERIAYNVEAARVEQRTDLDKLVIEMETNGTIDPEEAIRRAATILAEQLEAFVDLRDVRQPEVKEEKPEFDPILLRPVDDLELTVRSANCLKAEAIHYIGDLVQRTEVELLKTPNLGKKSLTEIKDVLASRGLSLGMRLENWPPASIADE
Chain of E. Coli RNAP (P0A800 whole entry partner): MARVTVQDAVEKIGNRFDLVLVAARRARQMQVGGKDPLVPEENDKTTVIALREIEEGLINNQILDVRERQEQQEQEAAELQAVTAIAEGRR

Cc1cc(Cl)ccc1OCCC/C(O)=C1\C(=O)CCN(C(=O)c2ccccc2)C1=O [19d]
MIC (S1): 2 µg/mL (≈ 4.67 µM)
MIC (P1): 2 µg/mL (≈ 4.67 µM)
PMBC (LD50, μM) ([1]; human): 90.9 µM
MIC (S4): 4 µg/mL (≈ 9.35 µM)
MIC (H4): 8 µg/mL (≈ 18.7 µM)
Hek293 (LD50, μM) ([2]; human): 90.9 µM
MIC (S26): 4 µg/mL (≈ 9.35 µM)
MIC (H3): 16 µg/mL (≈ 37.4 µM)
SI (Selectivity index) [3]: 9.7
MIC (P9): 1 µg/mL (≈ 2.34 µM)
MIC (E2): 4 µg/mL (≈ 9.35 µM)
MIC (P9B): 4 µg/mL (≈ 9.35 µM)
MIC [4]: 4 µg/mL (≈ 9.35 µM)
SOL [5]: >300 µM

CCCC(=O)N1CC(=O)C(=C(O)CC23CC4CC(C)(CC(C)(C4)C2)C3)C1=O [27k]
MIC S1 (S1): 2 µg/mL (≈ 5.35 µM)
MIC P1 (P1): 1 µg/mL (≈ 2.68 µM)
PMBC (LD50, μM) ([1]; human peripheral blood cells): 90.9 µM
MIC S4 (S4): 2 µg/mL (≈ 5.35 µM)
MIC H4 (H4): 4 µg/mL (≈ 10.7 µM)
IC50 (E. Coli RNAP): 6.7 µM
Hek293 (LD50, μM) [2, 7]: 30.3 µM
MIC S26 (S26): 2 µg/mL (≈ 5.35 µM)
MIC H3 (H3): 8 µg/mL (≈ 21.4 µM)
MIC P9 (P9): 0.5 µg/mL (≈ 1.34 µM)
MIC E2 (E2): 1 µg/mL (≈ 2.68 µM)
MIC P9B (P9B): 1 µg/mL (≈ 2.68 µM)
MIC S2 [4]: 2 µg/mL (≈ 5.35 µM)
SOL [5]: >300 µM
IC50 (S. aureus membrane): > 100 µM
MIC E1 (E1): 0.5 µg/mL (≈ 1.34 µM)
RBC membrane lysis activity (active/inactive) [6]: Active

CCC/C=C/C(=O)N1CC(=O)/C(=C(/O)CC2C[C@@H](C(C)=O)C2(C)C)C1=O (stereo partly shown) [27q]
MIC (all strains; [8]): > 32 µg/mL
MIC (H4): 32 µg/mL (≈ 88.5 µM)

CCCC(=O)N1CC(=O)/C(=C(/O)CCNS(=O)(=O)c2ccccc2)C1=O [28j]
MIC (all strains; [9]): > 32 µg/mL

CC12CC3CC(C)(C1)CC(C/C(O)=C1\C(=O)[C@@H]4CCCC(=O)N4C1=O)(C3)C2 [29a]
MIC (all strains; [8]): > 32 µg/mL
MIC (H4): 16 µg/mL (≈ 43.1 µM)
IC50 (E. Coli RNAP): > 100 µM

CCCCCCC/C=C/C(=O)N1C(=O)/C(=C(\O)C[C@@H]2OC(C)(C)OC2=O)C(=O)C1CC(C)C (stereo partly shown) [30c]
MIC (all strains; [9]): > 32 µg/mL
IC50 (E. Coli RNAP): 85 µM

CSCCC1C(=O)C(=C(O)CC23CC4CC(C)(CC(C)(C4)C2)C3)C(=O)N1C(C)=O (stereo not shown) [31e]
MIC S1 (S1): 2 µg/mL (≈ 4.77 µM)
MIC P1 (P1): 2 µg/mL (≈ 4.77 µM)
PMBC (LD50, μM) ([1]; human peripheral blood cells): 90.9 µM
MIC S4 (S4): 4 µg/mL (≈ 9.53 µM)
MIC H4 (H4): 4 µg/mL (≈ 9.53 µM)
IC50 (E. Coli RNAP): 11 µM
Hek293 (LD50, μM) [2, 7]: 30.3 µM
MIC S26 (S26): 1 µg/mL (≈ 2.38 µM)
MIC H3 (H3): 32 µg/mL (≈ 76.3 µM)
MIC P9 (P9): 2 µg/mL (≈ 4.77 µM)
MIC E2 (E2): 4 µg/mL (≈ 9.53 µM)
MIC P9B (P9B): 4 µg/mL (≈ 9.53 µM)
MIC S2 [4]: 4 µg/mL (≈ 9.53 µM)
SOL [5]: >300 µM
IC50 (S. aureus membrane): 91.4 µM
MIC E1 (E1): 4 µg/mL (≈ 9.53 µM)
RBC membrane lysis activity (active/inactive) [6]: Active

CSCCC1C(=O)C(=C(O)CC23CC4CC(CC(C4)C2)C3)C(=O)N1C(=O)C1CCCCC1 (stereo not shown) [31f]
MIC S1 (S1): 0.5 µg/mL (≈ 1.09 µM)
MIC P1 (P1): 1 µg/mL (≈ 2.18 µM)
PMBC (LD50, μM) ([1]; human peripheral blood cells): >90.9 µM
MIC S4 (S4): 0.5 µg/mL (≈ 1.09 µM)
MIC H4 (H4): 2 µg/mL (≈ 4.35 µM)
IC50 (E. Coli RNAP): 40 µM
Hek293 (LD50, μM) [2, 7]: 90.9 µM
MIC S26 (S26): 1 µg/mL (≈ 2.18 µM)
MIC H3 (H3): 32 µg/mL (≈ 69.6 µM)
MIC P9 (P9): 0.5 µg/mL (≈ 1.09 µM)
MIC E2 (E2): 1 µg/mL (≈ 2.18 µM)
MIC P9B (P9B): 2 µg/mL (≈ 4.35 µM)
MIC S2 [4]: 2 µg/mL (≈ 4.35 µM)
SOL [5]: >300 µM
IC50 (S. aureus membrane): > 100 µM
MIC E1 (E1): 0.5 µg/mL (≈ 1.09 µM)
RBC membrane lysis activity (active/inactive) [6]: Inactive^d

CSCCC1C(=O)/C(=C(/O)CC2CC3CCC2C3)C(=O)N1C(=O)CC(C)CC(C)(C)C (stereo not shown) [31g]
MIC (S1): 0.12 µg/mL (≈ 0.267 µM)
MIC (P1): 0.5 µg/mL (≈ 1.11 µM)
PMBC (LD50, μM) ([1]; human): 30.3 µM
MIC (S4): 0.5 µg/mL (≈ 1.11 µM)
MIC (H4): 2 µg/mL (≈ 4.45 µM)
IC50 (E. Coli RNAP): > 100 µM
Hek293 (LD50, μM) ([2]; human): 10.1 µM
MIC (S26): 0.5 µg/mL (≈ 1.11 µM)
MIC (H3): 32 µg/mL (≈ 71.2 µM)
SI (Selectivity index) [3]: <9.1
MIC (P9): 0.25 µg/mL (≈ 0.556 µM)
MIC (E2): 0.25 µg/mL (≈ 0.556 µM)
MIC (P9B): 2 µg/mL (≈ 4.45 µM)
MIC [4]: 0.5 µg/mL (≈ 1.11 µM)
SOL [5]: >300 µM
IC50 (S. aureus membrane; Staphylococcus aureus): > 100 µM
RBC membrane lysis activity (active/inactive) [6]: Active

CSCCC1C(=O)/C(=C(/O)C[C@@H]2OC(C)(C)OC2=O)C(=O)N1C(=O)CC(C)CC(C)(C)C (stereo partly shown) [31h]
MIC (all strains; [9]): > 32 µg/mL

CSCCC1C(=O)/C(=C(/O)CCCOc2ccc(Cl)cc2C)C(=O)N1C(=O)CC(C)CC(C)(C)C (stereo not shown) [31j]
MIC (S1): 0.5 µg/mL (≈ 0.954 µM)
MIC (P1): 0.5 µg/mL (≈ 0.954 µM)
PMBC (LD50, μM) ([1]; human): 30.3 µM
MIC (S4): 1 µg/mL (≈ 1.91 µM)
MIC (H4): 8 µg/mL (≈ 15.3 µM)
IC50 (E. Coli RNAP): 91 µM
Hek293 (LD50, μM) ([2]; human): 10.1 µM
MIC (S26): 1 µg/mL (≈ 1.91 µM)
MIC (H3): > 64 µg/mL
SI (Selectivity index) [3]: <11
MIC (P9): 0.25 µg/mL (≈ 0.477 µM)
MIC (E2): 0.25 µg/mL (≈ 0.477 µM)
MIC (P9B): 8 µg/mL (≈ 15.3 µM)
MIC [4]: 0.5 µg/mL (≈ 0.954 µM)
SOL [5]: >300 µM
IC50 (S. aureus membrane; Staphylococcus aureus): > 100 µM
MIC (E1; Enterococcus): 1 µg/mL (≈ 1.91 µM)
RBC membrane lysis activity (active/inactive) [6]: Active
